According to patent publication US20080072494A1, “Micronutrient elicitor for treating nematodes in field crops” (priority 2006, published 2008):

Columns and labels:
[1] = type: physicochemical
From the text: Chitin/chitosan occurs naturally in a range from 100% chitin to 100% chitosan as a mixed polymer. […] Below is data showing that the micronutrient of the present invention outperforms chitin/chitosan as an elicitor of self-protecting enzymes.

β-1,3-glucanase = β-1,3-glucanase elicitation in germinating mung beans after seed treatment (laminarin substrate); type: in vivo; settings: mung bean seeds, 0.5, 0.05 and 0.005 mg/seed; higher doses gave lower activities
Method: Enzyme activity measurements relate to the level of a given enzyme protein in the plant tissue. As an example of enhanced enzyme activity, β-1,3-glucanase was measured. The enzyme, β-1,3-glucanase, was assayed using laminarin (a soluble β-1,3-glucan) as substrate. Crude homogenates of the seedlings from treated seeds yielded the data in FIG. 1. Increased β-1,3-glucanase activity compared to controls (without seed treatment) was obtained in the micronutrient of the present invention treatments ten days following germination. Elicitation of mung beans seeds that were treated with the micronutrient of the present invention were compared to those treated with two types of elicitors. First, various concentrations of purified colloidal chitin/chitosan were used. […] Secondly, lower concentrations of the chitin oligosaccharide containing six glycan moieties, N-acetylchitohexaose were studied. The importance of the chitin oligosaccharide is that short chains of chitin have been found optimal in elicitation of many types of plants. […] Comparisons similar to those with chitin/chitosan could be made between the performance of 1 mg/seed micronutrient of the present invention and lower concentrations of the more optimal oligosaccharide.

Compound: chitin/chitosan
- water solubility [1]: not water soluble

Compound: CC(=O)N[C@H]1[C@H](O[C@H]2[C@H](O)[C@@H](NC(C)=O)[C@H](O[C@H]3[C@H](O)[C@@H](NC(C)=O)C(O)O[C@@H]3CO)O[C@@H]2CO)O[C@H](CO)[C@@H](O[C@@H]2O[C@H](CO)[C@@H](O[C@@H]3O[C@H](CO)[C@@H](O[C@@H]4O[C@H](CO)[C@@H](O)[C@H](O)[C@H]4NC(C)=O)[C@H](O)[C@H]3NC(C)=O)[C@H](O)[C@H]2NC(C)=O)[C@@H]1O (some centres unmarked) [N-acetylchitohexaose]
- dose response relationship of β-1,3-glucanase specific activity (β-1,3-glucanase): negative
